We go through ten compounds from patent US8383554B2, “Quantitative microarray of intact glycolipid CD1d interaction and correlation with cell-based cytokine production” (Academia Sinica, priority 2008, dated 2013).

In data set [1] the target is T1, mCD1d:Ig fusion protein (CD1d) (Mus musculus, UniProt P11609).
T1 construct: purchased BD Bioscience
T1 sequence (P11609 22-305 limits assumed): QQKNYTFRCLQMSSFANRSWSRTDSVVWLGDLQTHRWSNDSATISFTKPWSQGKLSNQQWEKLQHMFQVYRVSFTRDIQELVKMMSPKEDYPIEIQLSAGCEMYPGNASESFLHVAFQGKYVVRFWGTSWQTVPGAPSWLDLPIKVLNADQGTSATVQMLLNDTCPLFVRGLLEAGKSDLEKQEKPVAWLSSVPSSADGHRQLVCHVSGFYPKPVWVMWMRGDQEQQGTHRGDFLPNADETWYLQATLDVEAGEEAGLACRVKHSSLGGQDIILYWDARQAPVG
T1 sequence (P01887 21-119 partner): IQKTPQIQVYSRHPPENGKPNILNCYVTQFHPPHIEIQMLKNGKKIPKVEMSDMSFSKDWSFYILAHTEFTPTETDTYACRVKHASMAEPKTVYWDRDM
The data set is described as follows: Competitive binding assay on microarray (Ki in solution). The settings on record: for binding to CD1d in competition assay (in words): relative to α-GalCer or parent compound; for Ki: competition against surface compound 1, CD1d ~100-200 nM. The text has this:
Determination of Ki. The solution equilibrium dissociation constant (Ki) for glycolipid-CD1d interactions can be determined using microarrays in a competitive assay. The equation that describes the binding of the two ligands to the same site on the protein is identical to that for the competitive inhibition of an enzyme-catalyzed reaction. It is possible to take advantage of the convenience of IC50 measurements and still report inhibitory potency in terms of true Ki values. The final forms of the relationship can be expressed as
In this assay, the concentration of the protein is kept constant at or near the KD, surf (˜100-200 nM of CD1d). The glass slide is incubated with solutions containing varying concentrations of the glycolipid (covering about two orders of magnitude) and the protein.
Microarray Fabrication. Microarrays were printed (Genomic Solutions, Gene Machine) by robotic pin (SMP2B, TeleChem International Inc.). Approximately […] of various concentrations of amine-containing compounds 1-4 in DMSO were deposited onto slides from a 384 well plate. The slide for: (1) the scope of printing concentration studies: NHS-coated glass slides were printed with compounds 1-4 at 20 different concentrations (1000, 800, 600, 400, 200, 100, 80, 60, 40, 20, 10, 8, 6, 4, 2, 1, 0.8, 0.6, 0.4, 0.2 μM) from right to left with 10 replicates vertically placed in each sub-array. Six identical sub-arrays were fabricated in a 1×6 pattern and each sub-array consisted of a 20×10 pattern of spots, with a 0.3 mm pitch. After 2 h, the surface of the slide was divided by permanent marker to avoid contamination for later protein incubation; (2) the slide for FIG. 2 was printed with compound 1 with concentrations of 1000 (left most column), 900, 800, 700, 600, 500, 400, 300, 200, 100, 80, 60, 40, 20, 10, 5 μM (right-most column, 16 different conc.) with 16 replicates vertically placed in each grid, and totally 16 replicate (8×2 pattern) sub-arrays in one slide; (3) the slides for Ki determinations: the slides were printed of compound 1 with concentration of 1000, 900, 800 μM from right to left 81 replicates placed in each grid (9×9 pattern) and totally 44 sub-arrays replicates (4×11 pattern, each subarray is approximately 5 mm (width)×6 mm (length) area) in one slide. After 24 hours reaction, the slides were washed with PBST buffer (0.05% Tween 20) for 30 min and then blocked with blocking solution (super-block blocking buffer in PBS, Pierce) for another 1 h. The slides were dried under a flow of argon gas and stored at room temperature in a desiccator. The slides were washed with PBS buffer (pH 7.4) before use.
Competitive Binding Assay. Solutions of the competitors at different concentration (400 to 0.1 μM) were prepared and 5 μl aliquots incubated with protein (5 μl, 100˜250 nM). The mixture was then placed in a 384 well microtiter plate, covered, and left for five to eight hours. An aliquot of this solution (8 μL) was loaded onto the slides and incubated for 1 hour under a humidifying container at room temperature. The following procedure is the same as above the direct binding assay in washing procedure and applying secondary antibody. To get the data, Each inhibitor was assayed under this system at least three times and average Ki values are reported.
Data analysis. Extraction of spot intensity data was performed using ArrayVision 8.0 (Applied Precision). The background, calculated as the median of pixel intensities from the local area around each spot, was subtracted from the mean pixel intensity within each spot. To graphically represent the data, the values of the background-subtracted signal intensities were plotted against the known concentration of the protein spotted in the array, using the commercial non-linear regression program GraphPad PRISM 4 (GraphPad, San Diego). The values obtained from the competition assay were plotted against the known concentrations of the competitors applied on the slide. […]

The subject of data set [2] is human Vα24+ NKT cell line co-cultured with Hela cells transfected with human CD1d. The experiment in a line: Cytokine secretion assay using human NKT cell lines, IFN-γ by ELISA. The format is cell-based. The settings on record: 10 ng/ml glycolipid, 24 hours; for IFN-γ secretion (in words): relative to α-GalCer. As for the experimental part:
Generation of Vα24+ human NKT cell lines. Human NKT cell lines, expressing the Vα24+ T cell receptor (TCR), were generated as follows: Vα24+ T cells and CD14+ cells were isolated from leukopaks using magnetic beads (Miltenyi biotec, Auburn, Calif.) coupled to an anti-Vα24+ TCR monoclonal antibody and an anti-CD14 monoclonal antibody, respectively. Immature dendritic cells were generated from the CD14+ cells after a three-day incubation in the presence of 300 U/ml GM-CSF (R&D systems, Minneapolis, Minn.) and 100 U/ml IL-4 (R&D systems, Minneapolis, Minn.). Following irradiation with 3000 rads, the immature dendritic cells were co-cultured with syngeneic Vα24+ T cells in the presence of 100 ng/ml of α-galactosylceramide and 10 IU/ml of IL-2 (R&D systems, Minneapolis, Minn.) for 10 days.
Cytokine Secretion Assay using human NKT cell lines. Twenty-thousand cells of a human NKT cell line and 2×10^4 Hela cells transfected with human CD1d that had been irradiated for 10,000 rads, were co-cultured in the presence of 10 ng/ml of each glycolipid in a 96-well plate. After culture for 24 hours, the concentration of IFN-γ or IL-4 in the culture supernatants was determined by ELISA (BD Pharmingen, San Diego, Calif.).
(In an ELISA, binding on a coated surface is turned into a signal by an enzyme label.)

Data set [3] addresses CD1d. The settings on record: read-out: dissociation constant from ITC; cited from earlier work.
Data set [4] concerns the target CD1d. The settings on record: read-out: dissociation constant from IEF; cited from earlier work.
Data set [5] is described as follows: Water solubility of glycolipids. In kind it is physicochemical.

Entries after “also recorded” stand apart in the source; their conditions may differ. Read-outs that look alike come from different tables or passages of the source.

The term Ki denotes the equilibrium dissociation constant of an inhibitor or competing ligand from its target.

For the compound `CCCCCCCCCCCCCCCCCCCCCCCCCC(=O)N[C@@H](CO[C@H]1O[C@H](CO)[C@H](O)[C@H](O)[C@H]1O)[C@H](O)[C@H](O)CCc1ccccc1` [Compound 26], in data set [1], the “binding to CD1d in competition assay (in words)” value (from here on “binding to CD1d”) was “weaker agonist of mCD1d”.

`CCCCCCCCCCCCCC[C@@H](O)[C@@H](O)[C@H](CO[C@H]1O[C@H](CO)[C@H](O)[C@H](O)[C@H]1O)NC(=O)CCCCCCCc1ccc(OC)cc1` [Compound 19]: the “IFN-γ secretion (in words)” value in data set [2] is listed as “highest IFN-γ cytokine production, more than double that of the α-GalCer induced IFN-γ secretion”.

As to `CCCCCCCCCCCCCC[C@@H](O)[C@@H](O)[C@H](CO[C@H]1O[C@H](CO)[C@H](O)[C@H](O)[C@H]1O)NC(=O)CCCCCCCCCCc1ccccc1` [Compound 16], the “binding to CD1d” value in data set [1] is “about one order of magnitude stronger with CD1d than α-GalCer”.

Take `CCCCCCCCCCCCCC[C@@H](O)[C@@H](O)[C@H](CO[C@H]1O[C@H](CO)[C@H](O)[C@H](O)[C@H]1O)NC(=O)CCCCCCCc1ccccc1` [Compound 13]: the “binding to CD1d” value in data set [1] is reported as “about one order of magnitude stronger with CD1d than α-GalCer”. In addition, in data set [2], the “IFN-γ secretion (in words)” value is reported as “peak IFN-γ secretions among the spacer chain elongation in acyl modification (11-17)”.

As to `CCCCCCCCCCCCCC[C@@H](O)[C@@H](O)[C@H](CO[C@H]1O[C@H](CO)[C@H](O)[C@H](O)[C@H]1O)NC(=O)CCCCCCc1ccccc1` [Compound 12], in data set [1], the “binding to CD1d” value is “about one order of magnitude stronger with CD1d than α-GalCer”.

`CCCCCCCCCCCCCCCCCCCCCCCCCC(=O)N[C@@H](CO[C@H]1O[C@H](CO)[C@H](O)[C@H](O)[C@H]1O)[C@H](O)[C@H](O)CCCCCCCCCCCCCC` [α-GalCer, α-galactosyl ceramide]: the figures for the Kd at CD1d [3] and on CD1d [4] were 9.7 µM and 5.9 µM, respectively. The same compound returned an inhibition constant Ki in data set [1] of 14 µM. In addition, the “solubility in aqueous solution (in words)” value in data set [5] was “low solubility”.

On to `CCCCCCCCCCCCCC[C@@H](O)[C@@H](O)[C@H](CO[C@H]1O[C@H](CO)[C@H](O)[C@H](O)[C@H]1O)NC(=O)CCCCCCCc1ccc(-c2ccccc2)cc1` [Compound 21], for which the “binding to CD1d” value in data set [1] is reported as “lower binding activity; also recorded: weaker affinities to CD1d”. Moreover, in data set [2], the “selectivity IFN-γ vs IL-4 (in words)” value was “low selectivity between IFN-γ and IL-4”; the “IFN-γ secretion (in words)” value is recorded as “less IFN-γ production”.

On to `CCCCCCCCCCCCCC[C@@H](O)[C@@H](O)[C@H](CO[C@H]1O[C@H](CO)[C@H](O)[C@H](O)[C@H]1O)NC(=O)CCCCCCCc1ccc(F)cc1` [Compound 18], for which, in data set [1], the inhibition constant Ki worked out at 0.14 µM and the “binding to CD1d” value is given as “bind most strongly to CD1d; also recorded: enhance the binding by approximately one order of magnitude, compared with parent compound 13”. Also, in data set [1] (listed as para-fluoroheptaphenyl-modified α-GalCer), the “binding to CD1d” value is reported as “two orders of magnitude stronger than α-GalCer”. Further, in data set [2], the “selectivity IFN-γ vs IL-4 (in words)” value is recorded as “more than three times more selective for IFN-γ release” and the “IFN-γ secretion (in words)” value is listed as “induce the most IFN-γ secretions; also recorded: highest IFN-γ cytokine production, more than double that of the α-GalCer induced IFN-γ secretion”.

As to `CCCCCCCCCCCCCC[C@@H](O)[C@@H](O)[C@H](CO[C@H]1O[C@H](CO)[C@H](O)[C@H](O)[C@H]1O)NC(=O)CCCCCCCCCCCCCCc1ccccc1` [Compound 17], the “binding to CD1d” value in data set [1] is reported as “weaker affinities to CD1d”. In data set [2], the “selectivity IFN-γ vs IL-4 (in words)” value is “low selectivity between IFN-γ and IL-4”; the “IFN-γ secretion (in words)” value is on record as “less IFN-γ production”.

As to `CCCCCCCCCCCCCC[C@@H](O)[C@@H](O)[C@H](CO[C@H]1O[C@H](CO)[C@H](O)[C@H](O)[C@H]1O)NC(=O)CCCCCCCCCCc1ccc(-c2ccccc2)cc1` [Compound 25], the “binding to CD1d” value in data set [1] was “lower binding activity”.
